Experimental data published in the supplement of paper PMC4862054.

Columns and labels:
Assay in all cases: normalised response (% of control), CellTiter-Glo; higher = more viable cells (100 = DMSO, 0 = benzethonium chloride kill control)
Conditions in all cases: incubation time: 72 h
BT-474 = tested on: BT-474
Outline: (§1)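 Normalised signals at single concentrations make up the values. They come from breast cancer cell lines seeded (20 µl suspension) into 384-well plates with compound at 5 concentrations in 10-fold steps over a compound-specific 10,000-fold range, incubated 72 h, and read for CellTox Green fluorescence then CellTiter-Glo luminescence. Each plate was normalised to 0.1 % DMSO (100) and a positive kill control (0).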

BT-549 = tested on: BT-549
Outline: as §1

CAL-120 = tested on: CAL-120
Outline: as §1

CAL-148 = tested on: CAL-148
Outline: as §1

CAL-51 = tested on: CAL-51
Outline: as §1

CAL-85-1 = tested on: CAL-85-1
Outline: as §1

DU-4475 = tested on: DU-4475
Outline: as §1

HCC1143 = tested on: HCC1143
Outline: as §1

HCC1599 = tested on: HCC1599
Outline: as §1

HCC1937 = tested on: HCC1937
Outline: as §1

HDQ-P1 = tested on: HDQ-P1
Outline: as §1

Hs578T = tested on: Hs578T
Outline: as §1

MCF-10A = tested on: MCF-10A
Outline: as §1

MDA-MB-231 = tested on: MDA-MB-231
Outline: as §1

MDA-MB-436 = tested on: MDA-MB-436
Outline: as §1

MDA-MB-453 = tested on: MDA-MB-453
Outline: as §1

MDA-MB-468 = tested on: MDA-MB-468
Outline: as §1

MFM-223 = tested on: MFM-223
Outline: as §1

SK-BR-3 = tested on: SK-BR-3
Outline: as §1

SMILES	normalised response (BT-474) [%]	normalised response (BT-549) [%]	normalised response (CAL-120) [%]	normalised response (CAL-148) [%]	normalised response (CAL-51) [%]	normalised response (CAL-85-1) [%]	normalised response (DU-4475) [%]	normalised response (HCC1143) [%]	normalised response (HCC1599) [%]	normalised response (HCC1937) [%]	normalised response (HDQ-P1) [%]	normalised response (Hs578T) [%]	normalised response (MCF-10A) [%]	normalised response (MDA-MB-231) [%]	normalised response (MDA-MB-436) [%]	normalised response (MDA-MB-453) [%]	normalised response (MDA-MB-468) [%]	normalised response (MFM-223) [%]	normalised response (SK-BR-3) [%]
Cc1ccc(-c2cc(C(F)(F)F)nn2-c2ccc(S(N)(=O)=O)cc2)cc1 [Celecoxib] (1 nM)	96.5	104	96.8	102	88.1	104	95.5	96.8	93.6	95.9	97.4	105	98.8	98	95.1	111	102	102	102
O=C(/C=C/c1cccnc1)NCCCCC1CCN(C(=O)c2ccccc2)CC1 [Daporinad] (0.1 nM)	106	98.4	101	101	112	101	103	94	108	101	98.4	96.3	102	101	101	102	96.9	109	108
O=C(/C=C/c1cccnc1)NCCCCC1CCN(C(=O)c2ccccc2)CC1 [Daporinad] (1 nM)	106	98	105	101	114	103	105	106	106	101	98.1	97.1	106	101	105	88.8	103	87.2	113
Nc1ncn([C@H]2C[C@H](O)[C@@H](CO)O2)c(=O)n1 [Decitabine] (1 nM)	99.1	90	97	92.1	76.5	99	102	90.8	99.7	101	98.2	94.3	92.4	104	96.5	110	102	96.4	96.2
Nc1ccccc1NC(=O)c1ccc(CNC(=O)OCc2cccnc2)cc1 [Entinostat] (1 nM)	92.8	103	99.2	98.2	85.2	106	99.7	103	95.6	99.2	102	98.8	98.1	102	102	114	106	97.2	102
Nc1nc(F)nc2c1ncn2[C@@H]1O[C@H](CO)[C@@H](O)[C@@H]1O [Fludarabine] (1 nM)	111	101	98.4	97.2	93.1	101	99.8	110	102	99.3	103	110	113	99.9	120	112	103	109	111
CC[C@H](Nc1ncnc2[nH]cnc12)c1nc2cccc(F)c2c(=O)n1-c1ccccc1 [GS-1101] (1 nM)	92	102	90.1	84.8	101	95.1	100	89.9	96.3	91.6	88.3	96.8	79.2	98.5	92.5	88.3	93.4	85.4	88
CC[C@H](Nc1ncnc2[nH]cnc12)c1nc2cccc(F)c2c(=O)n1-c1ccccc1 [GS-1101] (10 nM)	93.7	92.7	93.2	87	122	95.3	100	93.2	112	92.3	94.2	97.4	89.7	93.2	88.3	89.1	99.8	87.8	65
C=CC(=O)N1CCC[C@@H](n2nc(-c3ccc(Oc4ccccc4)cc3)c3c(N)ncnc32)C1 [Ibrutinib] (0.1 nM)	101	102	97.1	101	99.3	100	102	96.3	104	97.3	93.6	104	109	102	96.8	110	103	106	109
C=CC(=O)N1CCC[C@@H](n2nc(-c3ccc(Oc4ccccc4)cc3)c3c(N)ncnc32)C1 [Ibrutinib] (1 nM)	103	97.8	97.7	114	102	98.3	106	106	102	95.3	98.2	99.3	111	105	98.2	107	105	108	98.1
O=C(Cc1ccc(-c2ccc(OCCN3CCOCC3)cc2)cn1)NCc1ccccc1 [KX2-391] (1 nM)	105	105	97.2	107	107	95.2	101	105	83.3	99.4	100	103	121	107	102	113	102	106	120
O=C(Cc1ccc(-c2ccc(OCCN3CCOCC3)cc2)cn1)NCc1ccccc1 [KX2-391] (10 nM)	103	102	101	112	73.2	97.3	104	104	100	98.4	98	103	107	100	98	101	94.6	106	87.6
N#Cc1ccc(C(c2ccc(C#N)cc2)n2cncn2)cc1 [Letrozole] (1 nM)	99.8	103	95.7	92	121	100	97.8	97.5	122	89.2	94.1	105	110	98.2	104	113	104	98.8	106
CCN(CC)CCCC(C)Nc1c2ccc(Cl)cc2nc2ccc(OC)cc12 (centres undefined) [Mepacrine] (5 nM)	96.1	104	107	94.5	97.8	93.8	96.2	97.5	95.6	102	105	100	107	99.8	111	96.9	100	97.2	104
CCN(CC)CCCC(C)Nc1c2ccc(Cl)cc2nc2ccc(OC)cc12 (centres undefined) [Mepacrine] (50 nM)	102	104	98.6	96.8	120	101	96.1	98	106	104	104	99.1	92.9	94	96.2	96.1	103	98.7	95.3
C[C@H]1C[C@@H]2[C@H]([C@@H](O)C[C@@]3(C)[C@H]2CC[C@]3(O)C(=O)CO)[C@@]2(C)C=CC(=O)C=C12 [Methylprednisolone] (1 nM)	110	100	103	120	100	94.5	108	99.1	113	99.3	99.6	103	103	105	99.5	116	104	103	109
C[C@H]1C[C@@H]2[C@H]([C@@H](O)C[C@@]3(C)[C@H]2CC[C@]3(O)C(=O)CO)[C@@]2(C)C=CC(=O)C=C12 [Methylprednisolone] (10 nM)	127	101	96.2	111	116	112	108	104	93.7	101	96.8	103	113	135	110	108	99.8	112	109
O=C(O)C(=O)O.[NH-][C@@H]1CCCC[C@H]1[NH-].[Pt+2] [Oxaliplatin] (1 nM)	91.9	103	98.5	91.3	110	91.3	91.7	93.2	95	93.9	98.2	98.9	96.6	94.2	106	86.8	86.7	91.2	90
O=C(O)C(=O)O.[NH-][C@@H]1CCCC[C@H]1[NH-].[Pt+2] [Oxaliplatin] (10 nM)	101	96.8	101	83.7	124	98.7	90.9	94	95	94.8	99.8	101	91	92.7	104	81.9	97.2	92	98.4
C=CCc1cccc(/C=N/NC(=O)CN2CCN(Cc3ccccc3)CC2)c1O [PAC-1] (1 nM)	97.7	105	96.8	96	129	99.7	100	101	101	106	105	104	113	103	97.5	103	109	102	109
C=CCc1cccc(/C=N/NC(=O)CN2CCN(Cc3ccccc3)CC2)c1O [PAC-1] (10 nM)	98.4	97.7	94.6	107	108	100	106	100	112	103	98.9	103	112	100	98.3	104	111	110	107
